Results taken from PMC3914206.

Legend:
Type in all cases: binding
Set-up in all cases: KINOMEscan: ABL1(F317L)-phosphorylated / KINOMEscan: ABL1(H396P)-nonphosphorylated / KINOMEscan: ABL1(H396P)-phosphorylated / KINOMEscan: ABL1(M351T)-phosphorylated / KINOMEscan: ABL1(T315I)-phosphorylated / KINOMEscan: ABL1-nonphosphorylated / KINOMEscan: ABL1-phosphorylated / KINOMEscan: ACVR2A / KINOMEscan: ACVR2B / KINOMEscan: ADCK3 / KINOMEscan: ADCK4 / KINOMEscan: AKT1 / KINOMEscan: AKT3 / KINOMEscan: ALK / KINOMEscan: ARK5 / KINOMEscan: AURKA / KINOMEscan: AURKC / KINOMEscan: BIKE / KINOMEscan: BMPR1A / KINOMEscan: BMPR1B / KINOMEscan: BMX / KINOMEscan: BRK / KINOMEscan: BRSK1 / KINOMEscan: BRSK2 / KINOMEscan: CAMK1 / KINOMEscan: CAMK1D / KINOMEscan: CAMK1G / KINOMEscan: CAMK2A / KINOMEscan: CAMK2B / KINOMEscan: AAK1 / KINOMEscan: CAMK2D / KINOMEscan: CAMK2G / KINOMEscan: ABL1(F317I)-nonphosphorylated / KINOMEscan: ABL1(F317I)-phosphorylated / KINOMEscan: ABL1(F317L)-nonphosphorylated: unit: % Ctrl
Conditions in all cases: Compound Concentration 10 µM
panel of 442 kinases [1] = biological target: T1, panel of 442 kinases (Homo sapiens, UniProt P17612)
T1 construct: purchased KINOMEscan
Text: (§1) We assessed the selectivity of members of this scaffold using the KINOMEscan methodology across a near comprehensive panel of 442 kinases [[18,27]].

panel of 442 kinases [2] = biological target: T2, panel of 442 kinases (Homo sapiens, UniProt Q96D53)
T2 construct: purchased KINOMEscan
T2 sequence (Q96D53 1-544): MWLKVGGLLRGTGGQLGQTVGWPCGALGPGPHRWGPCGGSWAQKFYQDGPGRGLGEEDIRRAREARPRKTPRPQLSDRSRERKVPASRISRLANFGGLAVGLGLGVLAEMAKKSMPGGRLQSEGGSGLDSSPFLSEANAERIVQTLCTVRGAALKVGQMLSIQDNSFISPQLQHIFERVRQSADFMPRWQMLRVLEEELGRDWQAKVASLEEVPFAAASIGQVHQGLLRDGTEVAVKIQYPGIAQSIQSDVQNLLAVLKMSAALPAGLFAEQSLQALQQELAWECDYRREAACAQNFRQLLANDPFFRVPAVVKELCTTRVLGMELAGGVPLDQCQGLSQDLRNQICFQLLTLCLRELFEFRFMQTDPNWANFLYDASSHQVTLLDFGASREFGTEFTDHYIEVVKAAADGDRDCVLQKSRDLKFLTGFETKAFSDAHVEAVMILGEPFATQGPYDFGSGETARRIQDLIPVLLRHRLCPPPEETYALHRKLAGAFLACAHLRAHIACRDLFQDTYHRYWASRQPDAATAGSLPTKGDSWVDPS
Text: as §1

panel of 442 kinases [3] = biological target: T3, panel of 442 kinases (Homo sapiens, UniProt Q9H2X6)
T3 construct: purchased KINOMEscan
Text: as §1

T3 sequence (Q9H2X6 whole entry): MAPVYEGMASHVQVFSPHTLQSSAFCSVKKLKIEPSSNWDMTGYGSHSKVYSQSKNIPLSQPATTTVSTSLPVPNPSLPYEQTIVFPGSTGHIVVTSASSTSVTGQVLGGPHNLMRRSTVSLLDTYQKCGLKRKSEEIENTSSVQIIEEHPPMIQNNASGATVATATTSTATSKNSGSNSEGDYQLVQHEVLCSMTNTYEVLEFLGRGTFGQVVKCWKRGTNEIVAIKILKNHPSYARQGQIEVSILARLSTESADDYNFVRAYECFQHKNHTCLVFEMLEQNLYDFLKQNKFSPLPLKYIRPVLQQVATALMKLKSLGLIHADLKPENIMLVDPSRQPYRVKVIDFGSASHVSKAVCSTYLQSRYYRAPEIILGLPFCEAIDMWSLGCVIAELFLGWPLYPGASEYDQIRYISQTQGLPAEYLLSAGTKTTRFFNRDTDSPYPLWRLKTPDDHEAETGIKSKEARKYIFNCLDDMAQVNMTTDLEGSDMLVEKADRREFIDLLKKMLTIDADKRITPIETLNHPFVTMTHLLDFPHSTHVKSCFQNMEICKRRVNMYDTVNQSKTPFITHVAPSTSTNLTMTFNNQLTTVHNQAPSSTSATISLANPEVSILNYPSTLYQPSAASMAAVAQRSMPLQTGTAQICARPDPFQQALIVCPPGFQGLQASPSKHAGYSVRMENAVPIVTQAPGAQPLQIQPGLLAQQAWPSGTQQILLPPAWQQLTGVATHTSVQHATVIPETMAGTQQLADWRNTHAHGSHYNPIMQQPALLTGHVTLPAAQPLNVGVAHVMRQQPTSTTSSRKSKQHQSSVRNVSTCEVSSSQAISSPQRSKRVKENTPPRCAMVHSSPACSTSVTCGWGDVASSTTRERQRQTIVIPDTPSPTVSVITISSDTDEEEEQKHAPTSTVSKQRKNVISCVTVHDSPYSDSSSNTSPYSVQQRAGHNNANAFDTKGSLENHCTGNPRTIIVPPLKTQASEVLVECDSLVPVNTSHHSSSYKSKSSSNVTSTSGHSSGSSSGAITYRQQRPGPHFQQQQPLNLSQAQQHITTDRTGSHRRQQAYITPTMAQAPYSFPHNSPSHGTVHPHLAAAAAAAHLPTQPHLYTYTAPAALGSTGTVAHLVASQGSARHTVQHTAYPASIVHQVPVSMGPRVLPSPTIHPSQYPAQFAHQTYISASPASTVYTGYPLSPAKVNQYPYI

Row | SMILES | KINOMEscan: PKAC-alpha (panel of 442 kinases [1]) | KINOMEscan: ADCK4 (panel of 442 kinases [2]) | KINOMEscan: HIPK2 (panel of 442 kinases [3])
1 | COc1cc(C(=O)N2CCC(N3CCN(C)CC3)CC2)ccc1Nc1ncc2c(n1)N(C)c1ccccc1C(=O)N2C [15 (LRRK2-IN-1)] | 100 | 94 | 88
2 | CCOc1cc(C(=O)N2CCC(N3CCN(C)CC3)CC2)ccc1Nc1ncc2c(n1)N(C1CCCC1)c1ccccc1C(=O)N2C [Compound 26] | 100 | 100 | 100
3 | COc1cc(C(=O)N2CCC(N3CCN(C)CC3)CC2)ccc1Nc1ncc2c(n1)N1CCc3cccc(c31)C(=O)N2C [Compound 24] | – | 81 | 88
4 | COc1cc(C(=O)N2CCC(N3CCN(C)CC3)CC2)ccc1Nc1ncc2c(n1)N(C1CCCC1)c1ccccc1C(=O)N2C [Compound 25, 11-cyclopentyl-2-((2-methoxy-4-(4-(4-methylpiperazin-1-yl)piperidine-1-carbonyl)phenyl)amino)-5-methyl-5H-benzo[e]pyrimido[5,4-b][1,4]diazepin-6(11H)-one] | 100 | 92 | 100
